Data as given in article PMC11217419, “TRP14 is the rate-limiting enzyme for intracellular cystine reduction and regulates proteome cysteinylation” (The EMBO Journal, 2024).

Target: T1, TXDC-17 (C. elegans TRP14) (Caenorhabditis elegans, UniProt Q9BL27)
T1 construct: recombinant, purified with the same methodologies as the human orthologue
T1 sequence (Q9BL27 1-132): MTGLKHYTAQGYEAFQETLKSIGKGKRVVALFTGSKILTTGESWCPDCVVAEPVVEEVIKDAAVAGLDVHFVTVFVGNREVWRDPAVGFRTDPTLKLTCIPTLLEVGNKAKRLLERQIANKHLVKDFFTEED
Test: coupled cystine reduction assay with C. elegans TRXR-1
Type: biochemical
Conditions: with C. elegans TRXR-1 as reductase

N[C@@H](CSSC[C@H](N)C(=O)O)C(=O)O [cystine]
coupled cystine reduction assay with C. elegans TRXR-1: TXDC-17, together with its native reductase, could efficiently reduce cystine in vitro
